Here are results for 1 compound from patent US20260174780A1, “BISMUTH-THIOL COMPOSITIONS AND METHODS FOR TREATING INFLAMMATORY DISEASES” (Microbion Corporation, priority 2022, published 2026).

Entries after “also recorded” stand apart in the source; their conditions may differ.

One experiment deals with NLRP3 inflammasome. Kind of experiment: RT-qPCR of NLRP3 inflammasome expression in THP-1 macrophages, uninfected or infected. Type of experiment: cell-based. How it is done:
THP-1 macrophages were differentiated with 50 ng/ml PMA for 24 hours, followed by 24 hours in media prior to infection. Differentiated THP-1 macrophages were infected with M. avium or M. abscessus for 1 hour with an MOI of 5. Infected cells were washed twice, followed by 1 hour of antibiotic treatment with 200 μg/ml of amikacin to remove extracellular bacteria. […] The treatments (see Table 2) included: (1) uninfected, (2) uninfected+range of BisEDT, (3) untreated+infected with M. avium, (4) M. avium infected+BIZ, (5) untreated+M. abscessus, and (6) M. abscessus infected+BIZ. The time points for sample preparation were 48 hours post infection. CFUs were determined as described above and RNA was collected from similar experiments.
(§1) THP-1 RNA from the cells was isolated using the Rneasy mini kit (Qiagen), followed by treatment with Dnase 1 recombinant (Roche Diagnostics) for 1 hour at 37° C. to remove contaminating genomic DNA. The DNase was inactivated with Turbo DNase-inactivation reagent (Turbo DNA-free kit, Thermo Fisher Scientific) for 2 min at 37° C. Inactivation reagent was removed via centrifugation for 1 min at 10,000×g, and RNA transferred to new collection tubes. RNA samples were stored at […] for future processing. cDNA was transcribed from host RNA using the iScript cDNA synthesis kit (Bio-Rad). The quality of cDNA was tested by PCR with Gold 360 master mix using the manufacturer's specifications (Thermo Fisher Scientific). The RT-qPCR reaction was performed using iQ SYBR Green Supermix (Bio-Rad) and an iCycler (CFX Connect Real-Time Systems, Bio-Rad) as previously described (1). Standard curves for each gene were run in each reaction and used to calculate absolute values of mRNA. Gene expression data are presented as relative expression to beta-actin. Primers (Table 3) were designed in Primer3 using sequences from GenBank (National Center for Biotechnology Information).

The subject of the next experiment is TGF-β. As to the kind of experiment: TGF-β expression in plasma of M. avium-infected mice. Type of experiment: in vivo. The note with it: 28 days treatment, low, med and high dose, compared to vehicle. The protocol:
Protocol: M. avium infection was initiated in mice, and 3 weeks were allowed to pass to establish the infection. The animals were treated for 28 days and grouped according to dosage: vehicle, low dose pravibismane, med dose pravibismane, and high dose pravibismane. At the end of treatment, plasma samples were collected for analysis.

Another experiment has as its system AIM2 inflammasome. Kind of experiment: RT-qPCR of AIM2 inflammasome expression in THP-1 macrophages, uninfected or infected. The format is cell-based. The protocol: THP-1 macrophages were differentiated with 50 ng/ml PMA for 24 hours, followed by 24 hours in media prior to infection. Differentiated THP-1 macrophages were infected with M. avium or M. abscessus for 1 hour with an MOI of 5. Infected cells were washed twice, followed by 1 hour of antibiotic treatment with 200 μg/ml of amikacin to remove extracellular bacteria. After the antibiotic treatment step, cells were washed once more and BisEDT (BIZ) was added at the indicated concentrations. The treatments (see Table 2) included: (1) uninfected, (2) uninfected+range of BisEDT, (3) untreated+infected with M. avium, (4) M. avium infected+BIZ, (5) untreated+M. abscessus, and (6) M. abscessus infected+BIZ. The time points for sample preparation were 48 hours post infection. CFUs were determined as described above and RNA was collected from similar experiments.
as §1

As to `C1C[S][Bi]([S]CC[S][Bi]2[S]CC[S]2)[S]1` [BisEDT, 1,2-(Bis(1,3-dithia-2-bismolane)thio)ethane], the “inhibitory effect on NLRP3 expression” value with NLRP3 inflammasome (BisEDT used after the infections) is on record as “the inhibitory effect was not observed”. Further, the NLRP3 expression result is reported as “reduced NLRP3 expression” in the experiment with NLRP3 inflammasome (M. abscessus (MAB 19977) infected cells pretreated with 0.5 μg/ml); “remained unchanged” with NLRP3 inflammasome (M. abscessus infected cells); “higher NLRP3 expression” with NLRP3 inflammasome (M. avium (MAH 104) infected cells pre-treated with 2 μg/ml, vs M. avium only infected cells); “reduced NLRP3 expression” with NLRP3 inflammasome (MAH 104 infection, 4 μg/ml treatment, vs MAH 104 infected cells); “did not impact NLRP3 expression” in the experiment on NLRP3 inflammasome (pre-treatment with 1 μg/ml prior to MAB 19977 infection). In addition, in the experiment with NLRP3 inflammasome (NTM-infected macrophages), the NLRP3 inhibition entry was “even greater dose-related NLRP3 inhibition”. Also, the “NLRP3 inflammasome expression relative to beta-actin” value in the experiment on NLRP3 inflammasome (uninfected THP-1 cells) is “dose-related inhibitory effect; also recorded: inhibits AIM2 and NLRP3 inflammasome expression”. In the experiment on TGF-β, the “expression of TGF-β” value was “consistent reduction”. Also, the “AIM2 gene expression relative to beta-actin” value is “even greater increase of expression” in the experiment on AIM2 inflammasome (M. abscessus infected THP-1 cells + 1 μg/ml BisEDT); “did not change the gene expression” in the experiment on AIM2 inflammasome (M. avium infected THP-1 cells + BisEDT (2, 4 μg/ml)); “The higher the dose, the more AIM2 gene expression was reduced; also recorded: inhibits AIM2 and NLRP3 inflammasome expression” with AIM2 inflammasome (uninfected THP-1 macrophages, 0.5-4 μg/ml BisEDT, 48 hours).
